Results taken from article PMC11374673, “Discovery of isoquinoline sulfonamides as allosteric gyrase inhibitors with activity against fluoroquinolone-resistant bacteria” (Nature Chemistry, 2024).
Several values for one entry are separate records, joined by “and”; a condition that tells them apart may be missing. Equal entries are not always repeated.

Tests used:
E. coli BW25113 = assay: Bacterial cytological profiling (BCP); type: cell-based, Escherichia coli; parameters: DAPI total area / DAPI nucleoid area / DIC area / DIC curvature / DIC feret / DIC length / DIC orientation: unit not given here
Method: Overnight E. coli BW25113 cultures were diluted 1:100 in fresh LB medium in a 100 ml Erlenmeyer flask and incubated at 120 r.p.m. and 37 °C. When OD600 >0.2, the cultures were diluted to OD600 of 0.1 in fresh LB medium with a final volume of 200 µl in a 2 ml Eppendorf tube. The appropriate antibiotic or control treatment was applied and the samples were incubated at 200 r.p.m. and 30 °C for 2 h. Subsequently, 4,6-diamidino-2-phenylindole (DAPI) (2 µg ml^−1), FM4-64 (2 µg ml^−1) and SYTOX Green (0.5 µM) were added to reach the desired concentration and the samples were incubated a further 10 min. The samples were then centrifuged at 3,300g for 50 s and the pellets resuspended in half the original volume. From this suspension, 5 µl was spotted onto a 2.0% agarose pad for microscopy.
Microscopy was performed on a Zeiss Axio Observer Z1/7 inverted microscope.
For the qualitative assessment of the bacterial morphology, the acquired images were first pre-processed in ImageJ (v1.53m)[47]. Thereafter the brightness and contrast were adjusted to allow the clearest visual inspection of the particular phenotype. For the quantitative BCP, DIC images were first pre-processed and then a random forest classifier was trained with Illastik (v1.3.3)[48] to generate a segmented image. These binary masks were then combined together with the original DIC image and processed with the ImageJ plugin MicrobeJ (v 5.13l)[49]. MicrobeJ generated cell outlines and performed measurements on cell shape accordingly. The recorded cell outlines produced by MicrobeJ were exported and used as a guide to characterize the DNA shape within each bacterium using a custom-made ImageJ macro (Appendix II). DAPI and SYTOX Green intensity were measured on raw images in a similar manner. Then, by hand, polygons were drawn that excluded bacteria to determine background intensity. After background correction the intensity was standardized to the DMSO control within the same biological replicate. For PCA, the BCP assay was executed for three independently biological replicates. During each experiment, images were acquired until 24 or more bacteria in total had been observed. Following feature extraction for each replicate, principal component analysis was performed using GraphPad Prism (v9.0.0) using multiple variable analysis with standardized data. Principal components (PCs) were selected based on the per cent of total explained variance (minimum 80%).

E. coli = assay: Checkerboard assay LEI-800 with CIP; type: cell-based, Escherichia coli;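 also: bacterial growth read as OD600 after 20 h at 37 °C with shaking, each drug pair tested in triplicate wells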
[1] = BCP, standardized to DMSO control
[2] = Ciprofloxacin 0.78125 nM + LEI-800 0 µM
[3] = Ciprofloxacin 0.78125 nM + LEI-800 0.1 µM
[4] = Ciprofloxacin 0.78125 nM + LEI-800 0.2 µM
[5] = Ciprofloxacin 0.78125 nM + LEI-800 0.4 µM
[6] = Ciprofloxacin 0.78125 nM + LEI-800 0.8 µM
[7] = Ciprofloxacin 0.78125 nM + LEI-800 3.1 µM
[8] = Ciprofloxacin 0.78125 nM + LEI-800 6.2 µM
[9] = Ciprofloxacin 1.5625 nM + LEI-800 0 µM
[10] = Ciprofloxacin 1.5625 nM + LEI-800 0.1 µM
[11] = Ciprofloxacin 1.5625 nM + LEI-800 0.2 µM
[12] = Ciprofloxacin 1.5625 nM + LEI-800 0.4 µM
[13] = Ciprofloxacin 1.5625 nM + LEI-800 0.8 µM
[14] = Ciprofloxacin 1.5625 nM + LEI-800 3.1 µM
[15] = Ciprofloxacin 1.5625 nM + LEI-800 6.2 µM
[16] = Ciprofloxacin 12.5 nM + LEI-800 0.2 µM
[17] = Ciprofloxacin 12.5 nM + LEI-800 0.4 µM
[18] = Ciprofloxacin 25 nM + LEI-800 0 µM
[19] = Ciprofloxacin 25 nM + LEI-800 0.1 µM
[20] = Ciprofloxacin 25 nM + LEI-800 0.2 µM
[21] = Ciprofloxacin 25 nM + LEI-800 0.4 µM
[22] = Ciprofloxacin 25 nM + LEI-800 0.8 µM
[23] = Ciprofloxacin 25 nM + LEI-800 3.1 µM
[24] = Ciprofloxacin 25 nM + LEI-800 6.2 µM
[25] = Ciprofloxacin 50 nM + LEI-800 0 µM
[26] = Ciprofloxacin 50 nM + LEI-800 0.1 µM
[27] = Ciprofloxacin 50 nM + LEI-800 0.2 µM
[28] = Ciprofloxacin 50 nM + LEI-800 0.4 µM
[29] = Ciprofloxacin 50 nM + LEI-800 0.8 µM
[30] = Ciprofloxacin 50 nM + LEI-800 3.1 µM
[31] = Ciprofloxacin 50 nM + LEI-800 6.2 µM

## O=S(=O)(NC[C@H]1CC[C@@H](c2ccc(-c3ccc(F)nc3)cc2)N1)c1cccc2cnccc12 [LEI-801]
E. coli BW25113
  PCA clustering of 24 BCP features: clustered with DMSO
E. coli BW25113; BCP
  DAPI aspect ratio: 2.179 ± 0.107
  DAPI circularity: 0.723 ± 0.016
  DAPI nucleoid area: 2.366 ± 0.636
  DAPI nucleoids: 1.288 ± 0.064
  DAPI perimeter: 6.375 ± 0.894
  DAPI roundness: 0.484 ± 0.024
  DAPI solidity: 0.916 ± 0.005
  DAPI total area: 2.897 ± 0.869
  DIC area: 3.335 ± 0.139
  DIC aspect ratio: 2.661 ± 0.151
  DIC circularity: 0.699 ± 0.026
  DIC curvature: 0.150 ± 0.018
  DIC feret: 3.227 ± 0.127
  DIC length: 3.253 ± 0.128
  DIC orientation: 96.714 ± 3.816
  DIC perimeter: 7.768 ± 0.245
  DIC roundness: 0.422 ± 0.025
  DIC sinuosity: 1.026 ± 0.005
  DIC solidity: 0.962 ± 0.004
  DIC width: 1.085 ± 0.030
  Decondensation: 0.863 ± 0.226
E. coli BW25113; BCP microscopy, 6.25 µM
  morphological phenotype: phenotype that is consistent with the DMSO control
E. coli BW25113; BCP, 2 h, AMP 12.5, RIF 12.5, TET 6.25, CIP 0.0625, LEI-801 6.25, LEI-800 6.25 µM, average ± SD of 3 replicates
  DIC angularity: 0.123 ± 0.008
E. coli BW25113; [1]
  DAPI intensity: 1.156 ± 0.345
  SYTOX Green intensity: 1.000 ± 0.284

## O=C(O)c1cn(C2CC2)c2cc(N3CCNCC3)c(F)cc2c1=O [CIP, ciprofloxacin]
E. coli; [2]
  checkerboard plate reading, Average values: 0.83
  checkerboard plate reading, replicate wells: 0.8643 and 0.836 and 0.7898
E. coli; [3]
  checkerboard plate reading, Average values: 0.7281
  checkerboard plate reading, replicate wells: 0.7059 and 0.7562 and 0.7221
E. coli; [4]
  checkerboard plate reading, Average values: 0.6917
  checkerboard plate reading, replicate wells: 0.6798 and 0.723 and 0.6723
E. coli; [5]
  checkerboard plate reading, Average values: 0.6669
  checkerboard plate reading, replicate wells: 0.6638 and 0.6554 and 0.6815
E. coli; [6]
  checkerboard plate reading, Average values: 0.5857
  checkerboard plate reading, replicate wells: 0.6064 and 0.5755 and 0.5753
E. coli; [7]
  checkerboard plate reading, Average values: 0.2755
  checkerboard plate reading, replicate wells: 0.2688 and 0.2609 and 0.2967
E. coli; [8]
  checkerboard plate reading, Average values: 0.1492
  checkerboard plate reading, replicate wells: 0.1443 and 0.151 and 0.1523
E. coli; Ciprofloxacin 0.78125 nM + LEI-800 […]
  checkerboard plate reading, Average values: 0.4707
E. coli; [9]
  checkerboard plate reading, Average values: 0.8174
  checkerboard plate reading, replicate wells: 0.9018 and 0.7912 and 0.7592
E. coli; [10]
  checkerboard plate reading, Average values: 0.71
  checkerboard plate reading, replicate wells: 0.7109 and 0.704 and 0.715
E. coli; [11]
  checkerboard plate reading, Average values: 0.6776
  checkerboard plate reading, replicate wells: 0.667 and 0.7085 and 0.6572
E. coli; [12]
  checkerboard plate reading, Average values: 0.6371
  checkerboard plate reading, replicate wells: 0.6099 and 0.644 and 0.6575
E. coli; [13]
  checkerboard plate reading, Average values: 0.5615
  checkerboard plate reading, replicate wells: 0.5364 and 0.5772 and 0.571
E. coli; [14]
  checkerboard plate reading, Average values: 0.2706
  checkerboard plate reading, replicate wells: 0.2674 and 0.2638 and 0.2807
E. coli; [15]
  checkerboard plate reading, Average values: 0.1458
  checkerboard plate reading, replicate wells: 0.1385 and 0.1476 and 0.1513
E. coli; Ciprofloxacin 1.5625 nM + LEI-800 […]
  checkerboard plate reading, Average values: 0.4578
E. coli; Ciprofloxacin 3.125 nM + LEI-800 0 µM
  checkerboard plate reading, Average values: 0.7916
E. coli; Ciprofloxacin 3.125 nM + LEI-800 0.1 µM
  checkerboard plate reading, Average values: 0.7539
E. coli; Ciprofloxacin 3.125 nM + LEI-800 0.2 µM
  checkerboard plate reading, Average values: 0.6934
E. coli; Ciprofloxacin 3.125 nM + LEI-800 0.4 µM
  checkerboard plate reading, Average values: 0.6265
E. coli; Ciprofloxacin 3.125 nM + LEI-800 0.8 µM
  checkerboard plate reading, Average values: 0.5829
E. coli; Ciprofloxacin 3.125 nM + LEI-800 3.1 µM
  checkerboard plate reading, Average values: 0.2713
E. coli; Ciprofloxacin 3.125 nM + LEI-800 6.2 µM
  checkerboard plate reading, Average values: 0.1411
E. coli; Ciprofloxacin 3.125 nM + LEI-800 […]
  checkerboard plate reading, Average values: 0.464
E. coli; Ciprofloxacin 6.25 nM + LEI-800 0 µM
  checkerboard plate reading, Average values: 0.8039
E. coli; Ciprofloxacin 6.25 nM + LEI-800 0.1 µM
  checkerboard plate reading, Average values: 0.6899
E. coli; Ciprofloxacin 6.25 nM + LEI-800 0.2 µM
  checkerboard plate reading, Average values: 0.6258
E. coli; Ciprofloxacin 6.25 nM + LEI-800 0.4 µM
  checkerboard plate reading, Average values: 0.6515
E. coli; Ciprofloxacin 6.25 nM + LEI-800 0.8 µM
  checkerboard plate reading, Average values: 0.573
E. coli; Ciprofloxacin 6.25 nM + LEI-800 3.1 µM
  checkerboard plate reading, Average values: 0.2841
E. coli; Ciprofloxacin 6.25 nM + LEI-800 6.2 µM
  checkerboard plate reading, Average values: 0.1541
E. coli; Ciprofloxacin 6.25 nM + LEI-800 […]
  checkerboard plate reading, Average values: 0.4469
E. coli; Ciprofloxacin 12.5 nM + LEI-800 0 µM
  checkerboard plate reading, Average values: 0.8165
E. coli; Ciprofloxacin 12.5 nM + LEI-800 0.1 µM
  checkerboard plate reading, Average values: 0.6889
E. coli; [16]
  checkerboard plate reading, Average values: 0.6272
  checkerboard plate reading, replicate wells: 0.6163
E. coli; [17]
  checkerboard plate reading, Average values: 0.6342
  checkerboard plate reading, replicate wells: 0.6092 and 0.6266 and 0.6669
E. coli; Ciprofloxacin 12.5 nM + LEI-800 0.8 µM
  checkerboard plate reading, Average values: 0.6048
E. coli; Ciprofloxacin 12.5 nM + LEI-800 3.1 µM
  checkerboard plate reading, Average values: 0.2553
E. coli; Ciprofloxacin 12.5 nM + LEI-800 6.2 µM
  checkerboard plate reading, Average values: 0.142
E. coli; Ciprofloxacin 12.5 nM + LEI-800 […]
  checkerboard plate reading, Average values: 0.4663
E. coli; [18]
  checkerboard plate reading, Average values: 0.8434
  checkerboard plate reading, replicate wells: 0.9002 and 0.8407 and 0.7891
E. coli; [19]
  checkerboard plate reading, Average values: 0.7231
  checkerboard plate reading, replicate wells: 0.7425 and 0.7229 and 0.7038
E. coli; [20]
  checkerboard plate reading, Average values: 0.6746
  checkerboard plate reading, replicate wells: 0.7088 and 0.6616 and 0.6533
E. coli; [21]
  checkerboard plate reading, Average values: 0.6549
  checkerboard plate reading, replicate wells: 0.6481 and 0.6316 and 0.685
E. coli; [22]
  checkerboard plate reading, Average values: 0.6861
  checkerboard plate reading, replicate wells: 0.7976 and 0.6273 and 0.6333
E. coli; [23]
  checkerboard plate reading, Average values: 0.2871
  checkerboard plate reading, replicate wells: 0.2705 and 0.2575 and 0.3334
E. coli; [24]
  checkerboard plate reading, Average values: 0.1517
  checkerboard plate reading, replicate wells: 0.149 and 0.1483 and 0.1579
E. coli; Ciprofloxacin 25 nM + LEI-800 […]
  checkerboard plate reading, Average values: 0.5325
E. coli; [25]
  checkerboard plate reading, Average values: 0.8946
  checkerboard plate reading, replicate wells: 0.9376 and 0.8747 and 0.8715
E. coli; [26]
  checkerboard plate reading, Average values: 0.7443
  checkerboard plate reading, replicate wells: 0.7759 and 0.7241 and 0.7328
E. coli; [27]
  checkerboard plate reading, Average values: 0.6725
  checkerboard plate reading, replicate wells: 0.6624 and 0.6684 and 0.6868
E. coli; [28]
  checkerboard plate reading, Average values: 0.6531
  checkerboard plate reading, replicate wells: 0.6441 and 0.64 and 0.6751
E. coli; [29]
  checkerboard plate reading, Average values: 0.7311
  checkerboard plate reading, replicate wells: 0.701 and 0.7232 and 0.7691
E. coli; [30]
  checkerboard plate reading, Average values: 0.2841
  checkerboard plate reading, replicate wells: 0.2522 and 0.2675 and 0.3325
E. coli; [31]
  checkerboard plate reading, Average values: 0.151
  checkerboard plate reading, replicate wells: 0.1483 and 0.1495 and 0.1553
E. coli; Ciprofloxacin 50 nM + LEI-800 […]
  checkerboard plate reading, Average values: 0.6545
